Values quoted from earlier work in patent US20220047514A1, “SOLID ORAL PHARMACEUTICAL COMPOSITIONS FOR CHRONOTROPIC ADMINISTRATION OF DIPEPTIDYL PEPTIDASE IV INHIBITORS” (priority 2018, published 2022).

Legend:
DPP-8 = DPP-8 (Homo sapiens, UniProt Q6V1X1); conditions: at therapeutic concentrations
DPP-9 = DPP-9 (Homo sapiens, UniProt Q86TI2); conditions: at therapeutic concentrations
DPP-9, sequence (Q86TI2 whole entry): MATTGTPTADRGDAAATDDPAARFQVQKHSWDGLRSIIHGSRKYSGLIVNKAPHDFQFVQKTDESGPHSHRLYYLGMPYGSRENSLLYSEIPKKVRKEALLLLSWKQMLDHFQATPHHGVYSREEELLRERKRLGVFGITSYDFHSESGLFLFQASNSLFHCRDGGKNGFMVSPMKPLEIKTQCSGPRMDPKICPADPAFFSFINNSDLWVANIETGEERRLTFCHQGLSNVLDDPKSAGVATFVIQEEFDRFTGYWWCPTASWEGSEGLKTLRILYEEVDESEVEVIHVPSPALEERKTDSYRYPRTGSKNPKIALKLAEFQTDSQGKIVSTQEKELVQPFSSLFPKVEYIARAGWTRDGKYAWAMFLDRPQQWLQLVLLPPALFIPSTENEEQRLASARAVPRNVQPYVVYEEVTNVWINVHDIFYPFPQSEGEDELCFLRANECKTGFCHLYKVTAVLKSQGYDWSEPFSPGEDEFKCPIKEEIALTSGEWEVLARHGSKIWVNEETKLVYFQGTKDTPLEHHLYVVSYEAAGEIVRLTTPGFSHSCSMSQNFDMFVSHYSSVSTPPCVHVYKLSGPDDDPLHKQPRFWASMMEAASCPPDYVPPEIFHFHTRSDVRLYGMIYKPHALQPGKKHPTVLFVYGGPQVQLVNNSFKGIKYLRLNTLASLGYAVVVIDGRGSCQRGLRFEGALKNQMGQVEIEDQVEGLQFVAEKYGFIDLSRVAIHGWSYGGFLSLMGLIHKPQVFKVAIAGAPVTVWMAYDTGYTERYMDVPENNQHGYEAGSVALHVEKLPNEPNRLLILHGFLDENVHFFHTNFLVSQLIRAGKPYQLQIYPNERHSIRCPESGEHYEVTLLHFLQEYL

DPP-8, sequence (Q6V1X1 whole entry): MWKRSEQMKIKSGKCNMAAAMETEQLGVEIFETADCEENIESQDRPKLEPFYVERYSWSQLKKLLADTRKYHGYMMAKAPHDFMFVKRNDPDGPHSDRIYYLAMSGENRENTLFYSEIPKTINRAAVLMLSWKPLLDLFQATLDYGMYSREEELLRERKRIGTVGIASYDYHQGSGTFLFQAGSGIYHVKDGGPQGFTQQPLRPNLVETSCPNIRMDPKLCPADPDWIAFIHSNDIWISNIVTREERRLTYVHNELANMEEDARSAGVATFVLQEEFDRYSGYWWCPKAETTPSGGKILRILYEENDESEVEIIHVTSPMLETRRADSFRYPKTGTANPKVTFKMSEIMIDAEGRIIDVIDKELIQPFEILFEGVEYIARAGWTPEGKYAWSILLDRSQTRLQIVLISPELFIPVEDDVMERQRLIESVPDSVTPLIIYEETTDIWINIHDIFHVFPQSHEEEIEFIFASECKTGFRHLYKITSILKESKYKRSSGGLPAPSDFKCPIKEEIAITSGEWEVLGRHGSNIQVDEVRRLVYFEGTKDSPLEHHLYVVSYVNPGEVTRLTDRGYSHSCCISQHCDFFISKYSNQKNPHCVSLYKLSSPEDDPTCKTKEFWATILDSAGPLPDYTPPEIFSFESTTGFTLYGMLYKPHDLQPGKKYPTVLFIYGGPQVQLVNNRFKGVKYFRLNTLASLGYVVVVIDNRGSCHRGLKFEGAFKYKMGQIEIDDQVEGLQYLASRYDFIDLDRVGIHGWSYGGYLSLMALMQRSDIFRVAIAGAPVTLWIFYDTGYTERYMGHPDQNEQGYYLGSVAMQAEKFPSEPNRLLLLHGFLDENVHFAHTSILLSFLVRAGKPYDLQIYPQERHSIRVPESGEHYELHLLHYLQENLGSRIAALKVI

For `N[C@@H](CC(=O)N1CCn2c(nnc2C(F)(F)F)C1)Cc1cc(F)c(F)cc1F` [Sitagliptin, sitagliptin], the “inhibition of the activity of DPP-8” value (DPP-8) is listed as “does not inhibit” and the “inhibition of the activity of DPP-9” value (DPP-9) is listed as “does not inhibit”.
